Target: T1, LecA (Pseudomonas aeruginosa, UniProt Q05097)
T1 construct: made in house; host or cells: E. coli BL21 (DE3), plasmid pET25pa11
Assay: biochemical
Type: binding
Conditions: IC50, extended dose-response analysis, 20% DMSO, no 2-mercaptoethanol, three experiments
Protocol: Therefore, we focused our attention on commercially available nitro‐catechols. Prominent derivatives are inhibitors of the enzyme catechol‐O‐methyltransferase (COMT) and approved drugs for the treatment of Parkinson's disease. Four commercial COMT inhibitors were thus evaluated in a previously reported competitive binding assay based on fluorescence polarisation (FP, Table 1, Figure 1).^[ [32] ^]
The competitive binding assay was performed in analogy to Joachim et al.^[2] 10 µL of a solution containing LecA (40 µM) and sulfo-Cy5-Gal (20 nM, synthesis described in Kuhaudomlarp, Siebs et al.^[5]) in TBS/Ca buffer (20 mM Tris, 147 mM NaCl, 2.6 mM KCl at pH 7.4 supplemented with 1 mM CaCl2) were distributed in into wells of a black 384-well microtiter plate (Greiner Bio-One, Germany, cat no 781900). Then, 10 µL of serial dilutions of compounds (3 mM to 1.5 µM, dilution factor 0.5) in TBS/Ca with 40% DMSO were added in technical triplicates. Final concentrations after mixing were the following: 1.5 mM – 0.73 µM compound, 20 µM LecA, 10 nM sulfo-Cy5-Gal and 20% DMSO. The plate was sealed (EASYseal, Greiner Bio-One, cat no 676001), briefly centrifuged and incubated at room temperature in the dark under shaking conditions. Fluorescence intensity was measured after 1 h and 4 h using a PheraStar FS plate reader (BMG Labtech GmbH, Germany) with spectral filters for excitation at 590 nm and emission at 675 nm and polarization was calculated after blank values of 20 µM LecA in TBS/Ca buffer with 20% DMSO were subtracted from the test compounds. The data were analysed using the four-parameter variable slope model of the MARS Data Analysis software. The top and bottom plateau were assigned based on the control compound methyl α-d-galactoside and the data was reanalysed with these fixed values. If not mentioned otherwise, the experiment was repeated at least three times for each compound and the average and standard deviation are given. In case Triton X-100 was used it was added to the TBS/Ca buffer before the assay.

T1 sequence (Q05097 whole entry): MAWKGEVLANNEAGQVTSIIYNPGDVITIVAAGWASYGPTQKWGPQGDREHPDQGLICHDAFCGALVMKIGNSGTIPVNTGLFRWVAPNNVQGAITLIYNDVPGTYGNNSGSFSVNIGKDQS

**Q.** With `O=[N+]([O-])c1cc(-c2cn3ncsc3n2)cc(O)c1O` [RO0199733] as the molecule, how does the IC50 read?
**A.** > 1500 µM

**Q.** `Cc1c(C(=O)c2cc(O)c(O)c([N+](=O)[O-])c2)[nH]c2ccccc12` [RO0403335] was tested. Which IC50 did it give?
**A.** 434 µM

**Q.** With `O=C(c1ccncc1)c1cc(O)c(O)c([N+](=O)[O-])c1` [RO0403499] as the molecule, how does the IC50 read?
**A.** 597 µM

**Q.** Which IC50 does the source give for `O=C(c1cc(O)c(O)c([N+](=O)[O-])c1)c1ccnc2ccccc12` [RO0405919] here?
**A.** 174 µM

**Q.** With `O=C(c1ccc(F)cc1)c1cc(O)c(O)c([N+](=O)[O-])c1` [RO0407028] as the molecule, how does the IC50 read?
**A.** 370 µM

**Q.** How did the IC50 turn out when `O=C(c1cc(O)c(O)c([N+](=O)[O-])c1)c1cncc2ccccc12` [RO0408176] was run?
**A.** 449 µM

**Q.** For `O=C(c1cccc(F)c1)c1cc(O)c(O)c([N+](=O)[O-])c1` [RO0412713], which IC50 is on record?
**A.** 675 µM

**Q.** With `Cc1ccccc1C(=O)c1cc(O)c(O)c([N+](=O)[O-])c1` [RO0412734] as the molecule, how does the IC50 read?
**A.** 116 µM

**Q.** `O=C(c1cc(O)c(O)c([N+](=O)[O-])c1)c1ccccc1C(F)(F)F` [RO0413162] was tested. Which IC50 did it give?
**A.** 128 µM

**Q.** With `N#Cc1ccccc1C(=O)c1cc(O)c(O)c([N+](=O)[O-])c1` [RO0413268] as the molecule, how does the IC50 read?
**A.** 214 µM

**Q.** With `O=C(c1cc(O)c(O)c([N+](=O)[O-])c1)c1ccccc1Cl` [RO0413301] as the molecule, how does the IC50 read?
**A.** 108 µM

**Q.** For `Cc1ccc(C(=O)c2ccc(O)c(O)c2[N+](=O)[O-])cc1` [RO0614977], which IC50 is on record?
**A.** 154 µM

**Q.** With `CC(C)(C)c1ccc(C(=O)c2cc(O)c(O)c([N+](=O)[O-])c2)cc1` [RO0615662] as the molecule, how does the IC50 read?
**A.** 144 µM

**Q.** With `CC(C)c1ccc(C(=O)c2cc(O)c(O)c([N+](=O)[O-])c2)cc1` [RO0615928] as the molecule, how does the IC50 read?
**A.** 129 µM

**Q.** `Cc1ccc(C(=O)c2cc(O)c(O)c(S(=O)(=O)C(F)(F)F)c2)cc1` [RO0616411] was tested. Which IC50 did it give?
**A.** 338 µM

**Q.** How did the IC50 turn out when `Cc1ccc(C(=O)C(=O)c2cc(O)c(O)c([N+](=O)[O-])c2)cc1` [RO0619291] was run?
**A.** 128 µM

**Q.** With `COC(=O)/C=C/c1cccc(C(=O)c2cc(O)c(O)c([N+](=O)[O-])c2)c1` [RO0619973] as the molecule, how does the IC50 read?
**A.** 258 µM

**Q.** `CCCNC(=O)c1ccc(C(=O)c2cc(O)c(O)c([N+](=O)[O-])c2)cc1` [RO0620570] was tested. Which IC50 did it give?
**A.** 347 µM

**Q.** With `CCN(CC)C(=O)c1ccc(C(=O)c2cc(O)c(O)c([N+](=O)[O-])c2)cc1` [RO0620573] as the molecule, how does the IC50 read?
**A.** 438 µM

**Q.** Which IC50 does the source give for `COC(=O)c1cccc(C(=O)c2cc(O)c(O)c([N+](=O)[O-])c2)c1` [RO0620808] here?
**A.** 279 µM

**Q.** Which IC50 does the source give for `CCOC(=O)c1cccc(C(=O)c2cc(O)c(O)c([N+](=O)[O-])c2)c1` [RO0620809] here?
**A.** 244 µM

**Q.** Which IC50 does the source give for `C=CCOC(=O)c1cccc(C(=O)c2cc(O)c(O)c([N+](=O)[O-])c2)c1` [RO0620810] here?
**A.** 139 µM

**Q.** With `O=C(NCC1CC1)c1cccc(C(=O)c2cc(O)c(O)c([N+](=O)[O-])c2)c1` [RO0621004] as the molecule, how does the IC50 read?
**A.** 363 µM

**Q.** How did the IC50 turn out when `CCCNC(=O)c1cccc(C(=O)c2cc(O)c(O)c([N+](=O)[O-])c2)c1` [RO0621005] was run?
**A.** 422 µM

**Q.** With `CCCCNC(=O)c1cccc(C(=O)c2cc(O)c(O)c([N+](=O)[O-])c2)c1` [RO0621006] as the molecule, how does the IC50 read?
**A.** 283 µM

**Q.** For `CC(C)OC(=O)c1cccc(C(=O)c2cc(O)c(O)c([N+](=O)[O-])c2)c1` [RO0621109], which IC50 is on record?
**A.** 156 µM

**Q.** `CCN(CC)C(=O)c1cccc(C(=O)c2cc(O)c(O)c([N+](=O)[O-])c2)c1` [RO0621115] was tested. Which IC50 did it give?
**A.** 229 µM

**Q.** Which IC50 does the source give for `CCCN(CCC)C(=O)c1cccc(C(=O)c2cc(O)c(O)c([N+](=O)[O-])c2)c1` [RO0621116] here?
**A.** 173 µM

**Q.** How did the IC50 turn out when `O=C(C(=O)c1cc(O)c(O)c([N+](=O)[O-])c1)c1ccccc1` [RO0621161] was run?
**A.** 153 µM

**Q.** How did the IC50 turn out when `CC(O)CCOC(=O)c1cccc(C(=O)c2cc(O)c(O)c([N+](=O)[O-])c2)c1` (centres unmarked) [RO0621239] was run?
**A.** 192 µM

**Q.** For `COC(=O)c1ccc(C(=O)c2cc(O)c(O)c([N+](=O)[O-])c2)cc1` [RO0621265], which IC50 is on record?
**A.** 330 µM

**Q.** Which IC50 does the source give for `O=C(OCCC(O)C(F)(F)F)c1cccc(C(=O)c2cc(O)c(O)c([N+](=O)[O-])c2)c1` (centres unmarked) [RO0622624] here?
**A.** 135 µM

**Q.** Which IC50 does the source give for `O=C(c1cccc(CO)c1)c1cc(O)c(O)c([N+](=O)[O-])c1` [RO0623430] here?
**A.** 446 µM

**Q.** `COCCOCc1ccc(C(=O)c2cc(O)c(O)c([N+](=O)[O-])c2)cc1` [RO0624122] was tested. Which IC50 did it give?
**A.** 289 µM

**Q.** How did the IC50 turn out when `CC(C)(C)COC(=O)c1cccc(C(=O)c2cc(O)c(O)c([N+](=O)[O-])c2)c1` [RO0626777] was run?
**A.** 206 µM

— paper PMC12684298, “The Parkinson's Disease Drug Tolcapone and Analogues are Potent Glycomimetic Lectin Inhibitors of Pseudomonas aeruginosa LecA” (Angewandte Chemie (International Ed. in English), 2025)
